Experimental data: US20140087369A1, “INFECTION DETECTION METHODS AND SYSTEMS AND RELATED COMPOUNDS AND COMPOSITIONS” (priority 2010, published 2014)

Test system: viral neuraminidase
Format: biochemical, influenza virus
Settings: pH 5.5

Compound	enzymatic cleavage of the substrate and release of odorant (decrease of substrate signal, appearance of cleavage product signals)
Sodium (4-(4-hydroxy-3-methoxyphenyl)butan-2-one-5-acetamido-3,5-dideoxy-α-D-glycero-D-galacto-2-nonulopyranoside)onate [zingerone]	significant loss of peak at 508.3 amu
CC(=O)NC1C(O)CC(OCC2(C)CC2CC2CC3CC3(C)C2(C)C)(C(=O)O)OC1CC(O)CO [javanol, Sodium ([(1R,2S)-1-methyl-2-[[(1R,3S,5S)-1,2,2-trimethyl-3-bicyclo[3.1.0]hexanyl]methyl]cyclopropyl]methyl-5-acetamido-3,5-dideoxy-α-D-glycero-D-galacto-2-nonulopyranoside)onate]	substrate is still present
